The text below walks through data of BindingDB's records for doi:10.1074/jbc.M113.476234 (The Scripps Research Institute, 2013).

By IC50 is commonly meant the concentration that gives 50% inhibition. Low readings indicate greater potency in that assay, high ones weaker potency in that assay.

Assay [1] addresses T1, Kappa-type opioid receptor (Homo sapiens, UniProt P41145). As to the kind of experiment: [35S]GTPγS Coupling Assay. (In general: GTPγS is a poorly hydrolysed GTP analogue; its binding reports G protein activation.)
In assay [2] the target is T1, Kappa-type opioid receptor. Put plainly: β-Arrestin2 Assay.

T1 sequence (P41145 whole entry): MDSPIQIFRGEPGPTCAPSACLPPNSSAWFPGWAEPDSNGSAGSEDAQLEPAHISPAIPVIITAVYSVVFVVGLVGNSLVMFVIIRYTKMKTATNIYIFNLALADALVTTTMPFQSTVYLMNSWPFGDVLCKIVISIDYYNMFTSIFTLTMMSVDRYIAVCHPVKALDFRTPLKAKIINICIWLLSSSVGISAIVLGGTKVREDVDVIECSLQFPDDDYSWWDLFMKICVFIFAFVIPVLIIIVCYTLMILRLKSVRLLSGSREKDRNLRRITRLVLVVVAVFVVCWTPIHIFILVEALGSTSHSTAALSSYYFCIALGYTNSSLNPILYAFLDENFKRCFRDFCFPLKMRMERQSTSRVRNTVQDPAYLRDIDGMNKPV

In the case of `NC(N)=Nc1ccc2[nH]c3c(c2c1)C[C@@]1(O)[C@@H]2Cc4ccc(O)c5c4[C@@]1(CCN2CC1CC1)[C@H]3O5` [5'-Guanidinonaltrindole (5'-GNTI)], the IC50 in assay [1] came out at 0.07 nM; in assay [2] it was 0.8 nM.
